Values after ≈ are worked out from the molar mass of the structure shown.
Assays:
Type in all cases: functional
Sitophilus zeamais [1] = assay: Contact toxicity against adult Sitophilus zeamais assessed as mortality applied to dorsal thorax of insect measured daily for 1 week; conditions: 168 h
Sitophilus zeamais [2] = assay: Insecticidal activity against adult Sitophilus zeamais assessed as mortality measured daily for 1 week by fumigation assay; conditions: 168 h
Sitophilus zeamais [3] = assay: Insecticidal activity against adult Sitophilus zeamais assessed as mortality after 24 hr by fumigation assay

Compound	LD50 (Sitophilus zeamais [1]) [mg/kg]	LC50 (Sitophilus zeamais [2]) [µg/mL]	LC50 (Sitophilus zeamais [3]) [µg/mL]
CC1=CC2C(CC1)C2(C)C (configuration not stated) [2-CARENE]	3.55	14 (≈ 103 µM)	–
CC(C)[C@@]12C=C[C@@](C)(CC1)OO2 [(Z)-ASCARIDOLE]	0.86	0.84 (≈ 4.99 µM)	–
CC1=CC=C(C(C)C)CC1 [ALPHA-TERPINENE]	3.47	5.46 (≈ 40.1 µM)	–
CBr [BROMOMETHANE]	–	–	0.67 (≈ 7.06 µM)
CC(C)[C@]12CC[C@@]3(C)O[C@H]3[C@H]1O2 [ISOASCARIDOLE]	2.16	2.45 (≈ 14.6 µM)	–
Cc1ccc(C(C)C)cc1 [P-CYMENE]	> 23.2	23.3 (≈ 173 µM)	–
P [PHOSPHINE]	–	–	0.006 (≈ 0.176 µM)
